ChEMBL document CHEMBL1141953, “Synthesis and structure-activity relationships of novel benzene sulfonamides with potent binding affinity for bovine carbonic anhydrase II” (Bioorg Med Chem Lett, 2005)

Target: Carbonic anhydrase 2 (Bos taurus, UniProt P00921)
Experiment: Displacement of DNSA from CAII in bovine erythrocytes

Sequence of Carbonic anhydrase 2 (P00921 whole entry): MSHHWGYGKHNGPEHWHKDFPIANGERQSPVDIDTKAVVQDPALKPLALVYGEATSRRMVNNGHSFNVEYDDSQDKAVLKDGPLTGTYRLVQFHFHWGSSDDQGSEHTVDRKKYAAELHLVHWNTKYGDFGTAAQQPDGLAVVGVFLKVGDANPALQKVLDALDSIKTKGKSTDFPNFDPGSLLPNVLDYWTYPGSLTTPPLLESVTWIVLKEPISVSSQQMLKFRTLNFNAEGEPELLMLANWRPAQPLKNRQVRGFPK

SMILES | Ki [nM]
NS(=O)(=O)c1ccc(C(=O)OC/C=C/CO)cc1 | 5.3
NS(=O)(=O)c1ccc(C(=O)OC/C=C\CO)cc1 | 9.1
NS(=O)(=O)c1ccc(C(=O)OC/C=C\COC(=O)c2ccc(S(N)(=O)=O)cc2)cc1 | 9.3
NS(=O)(=O)c1ccc(C(=O)OC/C=C/COC(=O)c2ccc(S(N)(=O)=O)cc2)cc1 | 4.9
C=CCCCOC(=O)c1ccc(S(N)(=O)=O)cc1 | 7.7
NS(=O)(=O)c1ccc(C(=O)OC/C=C/COC(=O)c2ccccc2)cc1 | 4.7
C=CCOC(=O)c1ccc(S(N)(=O)=O)cc1 | 8.6
